From patent publication US20090104145A1, “Mixtures of Anthranilamide Invertebrate Pest Control Agents” (priority 2004, published 2009)
Where two headings read alike, the source gives them in different places.

Assays:
Assay in all cases: whole plant or invertebrate
Format in all cases: in vivo
[1] = tested on: diamondback moth (Plutella xylostella)
Procedure: (§1) The pest control protection afforded by the mixtures or compositions is not limited, however, to these species. The analysis of synergism or antagonism between the mixtures or compositions was determined using Colby's equation. The average % mortality data for the test compounds alone were inserted into the Colby's equation. If the observed average % mortality was higher than “p”, the expected % mortality, the mixture or composition had synergistic effects. If the observed average % mortality was equal to or lower than the expected mortality, the mixture or composition either had no synergistic effect or an antagonistic effect. In these tests, Compound 1 is the compound of Formula 1.
For evaluating control of diamondback moth (Plutella xylostella), cabbage (var. Stonehead) plants were grown in Metromix potting soil in 10-cm pots in aluminum trays to test size (28 days, 3-4 full leaves) the plants were sprayed to the point of runoff using the turntable sprayer as described in Test I. Test compounds were formulated and sprayed on test plants as described for Test I. After drying for 2 hours, the treated leaves were excised and infested with one cabbage looper per cell and covered. The test units were placed on trays and put in a growth chamber at 25° C. and 60% relative humidity for 4 days.

[2] = tested on: potato leafhopper (Empoasca fabae Harris); conditions: Empoasca fabae, Imidacloprid 0 ppm, read-out: % Mortality (observed)
Procedure: as §1
(§2) Test compounds were formulated using a solution containing 10% acetone, 90% water and 300 ppm X-77® Spreader Lo-Foam Formula non-ionic surfactant containing alkylarylpolyoxyethylene, free fatty acids, glycols and isopropanol (Loveland Industries, Inc.) to provide the desired concentration in ppm. Formulated test solutions were then applied in 1 mL volumes through a SUJ2 atomizer nozzle with ⅛ JJ custom body (Spraying Systems Co.) positioned 1.27 cm (0.5 inches) above the top of each test unit.
For evaluating control of potato leafhopper (Empoasca fabae Harris) through contact and/or systemic means, each test unit consisted of a small open container with a 5- to 6-day-old Longio bean plant (primary leaves emerged) inside. White sand was added to the top of the soil, and one of the primary leaves was excised prior to application. Test compounds were formulated and sprayed with 3 replications as described for Test A. After spraying, the test units were allowed to dry for 1 hour before they were infested with 5 potato leafhoppers (18- to 21-day-old adults). A black, screened cap was placed on the top of each container. The test units were held for 6 days in a growth chamber at 19-21° C. and 50-70% relative humidity.

[3] = tested on: cotton melon aphid (Aphis gossypii Glover); conditions: Aphis gossypii
Procedure: as §1, §2
(§3) For evaluating control of cotton melon aphid (Aphis gossypii Glover) through contact and/or systemic means, each test unit consisted of a small open container with a 6- to 7-day-old cotton plant inside. This was pre-infested by placing on a leaf of the test plant 30 to 40 aphids on a piece of leaf excised from a culture plant (cut-leaf method). The larvae moved onto the test plant as the leaf piece desiccated. After pre-infestation, the soil of the test unit was covered with a layer of sand.
(§4) Test compounds were formulated and sprayed as described for Test A. The applications were replicated three times. After spraying of the formulated test compounds, each test unit was allowed to dry for 1 hour and then a black, screened cap was placed on top. The test units were held for 6 days in a growth chamber at 19-21° C. and 50-70% relative humidity.

[4] = tested on: silverleaf whitefly (Bemisia argentifolii Bellows and Perring); conditions: Bemisia argentifolii, in Gossypium hirsutum, read-out: % Mortality (observed)
Procedure: as §1
For evaluating control of silverleaf whitefly (Bemisia argentifolii Bellows and Perring) through contact and/or systemic means, each test unit consisted of a small open container with a 12- to 14-day-old cotton plant inside. This was pre-infested by placing test units into cages infested with adult whiteflies so that oviposition on the cotton leaves could occur. The adults were removed from the plants with an air-blast nozzle, and the test units were capped. The test units were then stored 2 to 3 days before spraying.
as §2
The results for all experimental compositions in this test were replicated three times. After spraying of the formulated test composition, each test unit was allowed to dry for 1 hour and the cap removed. The test units were held for 13 days in a growth chamber at 28° C. and 50-70% relative humidity.

[5] = tested on: corn planthopper (Pereginus maidis); conditions: read-out: % mortality (obs)
Procedure: as §1, §2
For evaluating control of corn planthopper (Pereginus maidis) through contact and/or systemic means, each test unit consisted of a small open cylindrical container with a 3- to 4-day-old corn (maize) plant (spike) inside. White sand was added to the top of the soil prior to application. Test compounds were formulated and sprayed with 3 replications as described for Test A. After spraying, the test units were allowed to dry for 1 hour before they were post-infested with 10 to 20 corn planthoppers (18- to 20-day-old nymphs) by sprinkling them onto the sand with a salt shaker. A black, screened cap was placed on the top of each container. The test units were held for 6 days in a growth chamber at 19-21° C. and 50-70% relative humidity.

[6] = tested on: green peach aphid (Myzus persicae Sulzer); conditions: Myzus persicae, in Raphanus sativus
Procedure: as §1, §2
as §3, with “green peach” for “cotton melon”, “(Myzus persicae Sulzer)” for “(Aphis gossypii Glover)”, “12-” for “6-”, “15-day-old radish” for “7-day-old cotton”
as §4, with “described in” for “described for”, “Test A,” for “Test A. The applications were”, “test compound,” for “test compounds,”

[7] = rate 0.5 ppm, read-out: % mortality (obs)
[8] = rate 2 ppm, read-out: % mortality (obs)

CNC(=O)c1cc(C#N)cc(C)c1NC(=O)c1cc(Br)nn1-c1ncccc1Cl [Compound 1, 3-bromo-N-[4-cyano-2-methyl-6-[(methylamino)carbonyl]phenyl]-1-(3-chloro-2-pyridinyl)-1H-pyrazole-5-carboxamide]
mortality at 0.005 ppm ([1]; Plutella xylostella, in Brassica oleracea, rate 0.005 ppm, read-out: % mortality (obs)): 86% | mortality at 0.02 ppm ([1]; Plutella xylostella, in Brassica oleracea, rate 0.02 ppm, read-out: % mortality (obs)): 87% | mortality at 0.08 ppm ([1]; Plutella xylostella, in Brassica oleracea, rate 0.08 ppm, read-out: % mortality (obs)): 94% | % mortality ([1]; rate 0.02): 83% | % mortality ([1]; rate 0.08): 90% | mortality at 0.3 ppm ([2]; Compound 1 0.3 ppm): 0% | mortality at 2.3 ppm ([2]; Compound 1 2.3 ppm): 0% | mortality at 18 ppm ([2]; Compound 1 18 ppm): 100% | mortality at 0.08 ppm ([3]; Compound 1 0.08 ppm, read-out: % Mortality (observed)): 15% | mortality at 0.4 ppm ([3]; Compound 1 0.4 ppm, read-out: % Mortality (observed)): 18% | mortality at 1.8 ppm ([3]; Compound 1 1.8 ppm, read-out: % Mortality (observed)): 66% | mortality at 0.1 ppm ([3]; rate 0.1 ppm, read-out: % mortality (obs)): 22% | mortality at 0.5 ppm [3, 7]: 37% | mortality at 2 ppm [3, 8]: 76% | mortality at 7 ppm ([4]; Compound 1 7 ppm alone): 58% | mortality at 9 ppm ([4]; Compound 1 9 ppm alone): 69% | mortality at 12 ppm ([4]; Compound 1 12 ppm alone): 72% | mortality at 0.3 ppm ([5]; rate 0.3 ppm): 15% | mortality at 3 ppm ([5]; rate 3 ppm): 26% | mortality at 30 ppm ([5]; rate 30 ppm): 90% | mortality at 0.5 ppm ([6]; 0.5 ppm, read-out: % Mortality (observed)): 14% | mortality at 1.1 ppm ([6]; 1.1 ppm, read-out: % Mortality (observed)): 22% | mortality at 2.1 ppm ([6]; 2.1 ppm, read-out: % Mortality (observed)): 49% | mortality at 0.5 ppm [6, 7]: 21% | mortality at 1 ppm ([6]; rate 1 ppm, read-out: % mortality (obs)): 35% | mortality at 2 ppm [6, 8]: 71%
